Laboratory results published in patent publication US20120004289A1, “ANNEXIN A11 AND ASSOCIATED GENES AS BIOMARKERS FOR CANCER” (The Johns Hopkins University, priority 2009, published 2012).

Tests used:
Assay type in all cases: cell-based, human
annexin A11 mRNA = assay: siRNA knockdown of annexin A11, real-time PCR of mRNA in 2008 cells; conditions: siRNA 40 nM, 3 days, compared with negative control cells (-Ctr), P<0.05
Protocol: (§1) (A and B) Effect of silencing of annexin A11 using different siRNA. 2008 cells were treated with one (A1 or A2 or A3) or a combination (A1-3) of three stealth RNA against annexin A11 or nonspecific sequence (-Ctr) at the concentration of 40 nM or without treatment (Wt) for 3 days. Immunoblot analysis (A) and real-time PCR (B) were performed to confirm the suppression of annexin A11 mRNA and protein expressions in the cells. β-Actin was taken as an additional control for equal sampling in immunoblot analysis (A). The relative mRNA expression level of each sample was normalized to GAPDH expression and compared with -Ctr sample. *P<0.05 (B). (C) Dose-dependent silencing of annexin A11 by siRNA. 2008 cells were treated with RNAi (A1) at the indicated concentrations of 40, 20, 10, or 5 nM or -Ctr at the concentration of 40 nM or without treatment (Wt) for 3 days. Immunoblot analysis (C) was performed to check the annexin A11 expression levels in the cells. β-Actin was taken as an additional control for equal sampling. (D) Duration of silencing of annexin A11 using siRNA. 2008 or HEY cells were treated with RNAi (A1) or -Ctr at the concentration of 40 nM. Immunoblot analysis was performed to analyze the annexin A11 expression levels in these cells.
All stealth RNA interference (RNAi) sequences were purchased from Invitrogen. The three stealth RNAi that targeted different annexin A11 sequences were as follows: A1, […]; A2, […]; and A3, […]. The stealth RNAi negative control duplex (medium GC) was used as a negative control. […] The optimized dose and duration of RNAi silencing were experimentally determined. […]
(Invitrogen) according to the manufacturer's instructions. […] An experiment consisted of triplicate amplification reactions for each gene product being analyzed. […] The cycle threshold number (CT) was determined for each PCR using iQ5 Real-time PCR Detection System (Bio-Rad). […] Results are expressed as relative abundance of a specific mRNA between control and experimental sample (fold change, mean±SD).

2008 cells [1] = assay: Cell colony formation assay after annexin A11 siRNA, 2008 cells; conditions: siRNA 40 nM 3 days, colonies counted six days after plating, P<0.01
Protocol: (§2) (A and B) Cell proliferation assay. 2008 (A) or HEY (B) cells were treated with RNAi (A1) or -Ctr at the concentration of 40 nM for 3 days, respectively, and then plated at 3000 viable cells per well into 96-well plates. Every 24 hours, one plate was subjected to assay by CCK-8 kit. The data in each time point are averaged values from eight replicates (P<0.05). (C) Colony formation assay. 2008 cells were treated in the same way as above for 3 days and then plated at 3000 viable cells per well into six-well plates. Six days after plating, cells were fixed with methanol and stained with 0.1% crystal violet and colonies were counted. The experiment was performed in six replicates (P<0.01). (D) Cell cytotoxicity assay. 2008 cells were treated in same way as above for 3 days and then plated at 3000 viable cells per well into 96-well plates. […]
2008 and HEY cells were cultured in T25 flasks and transfected with A1 or negative control for 3 days. Cells were then collected, counted, and plated at 3000 viable cells per well into six-well plates. Six days after plating, cells were fixed with methanol and stained with 0.1% crystal violet, and colonies were counted under the light microscope. […]

2008 cells [2] = assay: Cell proliferation assay (CCK-8) after annexin A11 siRNA, 2008 cells; conditions: siRNA 40 nM 3 days, compared with negative control transfectants, P<0.05
Protocol: as §2
(§3) Cell Counting Kit-8 (CCK-8; Dojindo, Gaithersburg, Md.) was used in cell proliferation assay. […] Cells were then collected by trypsinization, counted by using a hemacytometer with trypan blue dye, and plated at 3000 viable cells per well into 96-well tissue culture plates in a final volume of 100 μl. […] The absorbance at 450 nm was measured with a microplate reader (EL 312e; Biotek Instruments, Winooski, Vt.). […]

annexin A11 protein [3] = assay: siRNA knockdown of annexin A11, immunoblot analysis in 2008 cells; conditions: for annexin A11 protein expression (immunoblot): siRNA 40 nM, compared with strong expression in -Ctr and Wt cells
Protocol: as §1
All stealth RNA interference (RNAi) sequences were purchased from Invitrogen. The three stealth RNAi that targeted different annexin A11 sequences were as follows: A1, […]; A2, […]; and A3, […]. The stealth RNAi negative control duplex (medium GC) was used as a negative control. Transfection of annexin A11-specific siRNA and the negative control was performed using Lipofectamine 2000 (Invitrogen). The optimized dose and duration of RNAi silencing were experimentally determined. Briefly, cancer cells were seeded the day before siRNA transfection in either six-well plates or T25 flasks and were 30% to 50% confluent at the time of transfection. Stealth RNAi and Lipofectamine were diluted in Opti-MEM I Medium (Invitrogen), and 40 nM of the siRNA duplex was used in each transfection mixture. 2008 or HEY cells were transfected with one annexin A11-specific siRNA (A1 or A2 or A3) or a combination of three different siRNA at the equal amount (A1-3) or negative control for 2 to 3 days and were then harvested for the downstream experiments.
The denatured samples were electrophoresed on 4% to 15% gradient SDS-PAGE gels (Bio-Rad), electroblotted on nitrocellulose membranes (Bio-Rad), and probed with the respective antibodies against different targets. Both anti-annexin A11 (1:10,000) and anti-annexin A5 (1:2000) monoclonal antibodies were purchased from BD Biosciences (San Jose, Calif.). Rabbit anti-human HMOX1 polyclonal antibody (1:500) and mouse polyclonal anti-LY6D (1:500) were purchased from GenWay Biotech (San Diego, Calif.) and Novus Biologicals (Littleton, Colo.), respectively. The bound antibodies were visualized with horseradish peroxidase-conjugated secondary antibodies and enhanced chemiluminescence (Amersham, Pittsburgh, Pa.). Actin in the corresponding cell lysates was used as an additional control to show equal loading.

annexin A11 protein [4] = assay: siRNA knockdown of annexin A11, immunoblot analysis in HEY cells; conditions: after 2 days of siRNA transfection at 40 nM
Protocol: as §1, with “Immunoblot analysis was performed to analyze the annexin A11 expression levels in these cells.” left out
All stealth RNA interference (RNAi) sequences were purchased from Invitrogen. […] The optimized dose and duration of RNAi silencing were experimentally determined. […]

HEY cells = assay: Cell proliferation assay (CCK-8) after annexin A11 siRNA, HEY cells; conditions: siRNA 40 nM 3 days, compared with negative control transfectants, P<0.05
Protocol: as §2, §3

Row | Substance | down-regulation in annexin A11 mRNA expression levels (annexin A11 mRNA) | colony formation ability (2008 cells [1]) | decrease in rate of proliferation (2008 cells [2]) | silencing effect on annexin A11 expression by concentration (immunoblot) (annexin A11 protein [3]; 5 to 40 nM, 3 days) | duration of silencing of annexin A11 protein expression (annexin A11 protein [3]; after 3 days of siRNA transfection at 40 nM) | annexin A11 protein expression (immunoblot) (annexin A11 protein [3]; 3 days) | duration of silencing of annexin A11 protein expression (annexin A11 protein [4]) | decrease in rate of proliferation (HEY cells)
1 | A1: stealth RNAi (Invitrogen) targeting annexin A11, GGCCGUGGUGAAAUGUCUCAAGAAU (chemistry not given here) | three-fold to four-fold | greatly damaged | 40% | dose-dependent silencing effect | ≥ 10 days | barely detectable | ≥ 7 days | 34%
2 | A2: stealth RNAi (Invitrogen) targeting annexin A11, CCUCCUGGACAUCAGAUCAGAGUAU (chemistry not given here) | three-fold to four-fold |  |  |  |  | barely detectable |  | 
3 | A3: stealth RNAi (Invitrogen) targeting annexin A11, GGGAUUACCGGAAGAUUCUGCUGAA (chemistry not given here) | three-fold to four-fold |  |  |  |  | barely detectable |  | 
